Measured values taken from PubChem BioAssay (NCI).
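All cell lines were grown in 96-well plates and treated with compound for 48 hours. GI50 = concentration required for 50% inhibition of growth. The concentration for full growth arrest is given as TGI.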

How the values were obtained:
Assay in all cases: NCI tumour cell line growth inhibition, 48 h
786-0 renal = tested on: 786-0 renal
A498 renal = tested on: A498 renal
A549 NSCLC = tested on: A549 NSCLC
ACHN renal = tested on: ACHN renal
BT-549 breast = tested on: BT-549 breast
CAKI-1 renal = tested on: CAKI-1 renal
CCRF-CEM leukemia = tested on: CCRF-CEM leukemia
COLO 205 colon = tested on: COLO 205 colon
DU-145 prostate = tested on: DU-145 prostate
EKVX NSCLC = tested on: EKVX NSCLC
HCC-2998 colon = tested on: HCC-2998 colon
HCT-116 colon = tested on: HCT-116 colon
HCT-15 colon = tested on: HCT-15 colon
HL-60(TB) leukemia = tested on: HL-60(TB) leukemia
HOP-62 NSCLC = tested on: HOP-62 NSCLC
HOP-92 NSCLC = tested on: HOP-92 NSCLC
HS 578T breast = tested on: HS 578T breast
HT29 colon = tested on: HT29 colon
IGROV1 ovarian = tested on: IGROV1 ovarian
K-562 leukemia = tested on: K-562 leukemia
KM12 colon = tested on: KM12 colon
LOX IMVI melanoma = tested on: LOX IMVI melanoma
M14 melanoma = tested on: M14 melanoma
MALME-3M melanoma = tested on: MALME-3M melanoma
MCF7 breast = tested on: MCF7 breast
MDA-MB-231 breast = tested on: MDA-MB-231 breast
MOLT-4 leukemia = tested on: MOLT-4 leukemia
NCI-H226 lung = tested on: NCI-H226 lung
NCI-H23 lung = tested on: NCI-H23 lung
NCI-H460 lung = tested on: NCI-H460 lung
NCI-H522 lung = tested on: NCI-H522 lung
NCI/ADR-RES ovarian = tested on: NCI/ADR-RES ovarian
OVCAR-3 ovarian = tested on: OVCAR-3 ovarian
OVCAR-4 ovarian = tested on: OVCAR-4 ovarian
OVCAR-5 ovarian = tested on: OVCAR-5 ovarian
OVCAR-8 ovarian = tested on: OVCAR-8 ovarian
PC-3 prostate = tested on: PC-3 prostate
RPMI-8226 leukemia = tested on: RPMI-8226 leukemia
SF-268 CNS = tested on: SF-268 CNS
SF-295 CNS = tested on: SF-295 CNS
SF-539 CNS = tested on: SF-539 CNS
SK-MEL-2 melanoma = tested on: SK-MEL-2 melanoma
SK-MEL-28 melanoma = tested on: SK-MEL-28 melanoma
SK-MEL-5 melanoma = tested on: SK-MEL-5 melanoma
SN12C renal = tested on: SN12C renal
SNB-19 CNS = tested on: SNB-19 CNS
SNB-75 CNS = tested on: SNB-75 CNS
SR leukemia = tested on: SR leukemia
SW-620 colon = tested on: SW-620 colon
TK-10 renal = tested on: TK-10 renal
U251 CNS = tested on: U251 CNS
UACC-257 melanoma = tested on: UACC-257 melanoma
UACC-62 melanoma = tested on: UACC-62 melanoma
UO-31 renal = tested on: UO-31 renal

Structure (SMILES): CCCOC(=O)N[C@H]1CCc2cc(OC)c(OC)c(OC)c2-c2ccc(SC)c(=O)cc21
- GI50 (786-0 renal): < 0.01 µM
- TGI (786-0 renal): > 100 µM
- GI50 (A498 renal): < 0.01 µM
- GI50 (A549 NSCLC): < 0.01 µM
- TGI (A549 NSCLC): > 100 µM
- GI50 (ACHN renal): < 0.01 µM
- TGI (ACHN renal): 15.7 µM
- GI50 (BT-549 breast): < 0.01 µM
- TGI (BT-549 breast): 19.6 µM
- GI50 (CAKI-1 renal): < 0.0201 µM
- TGI (CAKI-1 renal): 24.2 µM
- GI50 (CCRF-CEM leukemia): < 0.01 µM
- TGI (CCRF-CEM leukemia): 19.7 µM
- GI50 (COLO 205 colon): < 0.01 µM
- TGI (COLO 205 colon): 0.0108 µM
- GI50 (DU-145 prostate): < 0.01 µM
- TGI (DU-145 prostate): > 100 µM
- GI50 (EKVX NSCLC): < 0.01 µM
- TGI (EKVX NSCLC): > 100 µM
- GI50 (HCC-2998 colon): < 0.01 µM
- TGI (HCC-2998 colon): 4.92 µM
- GI50 (HCT-116 colon): < 0.01 µM
- TGI (HCT-116 colon): 14.8 µM
- GI50 (HCT-15 colon): < 0.01 µM
- TGI (HCT-15 colon): 12 µM
- GI50 (HL-60(TB) leukemia): < 0.01 µM
- TGI (HL-60(TB) leukemia): < 0.0129 µM
- GI50 (HOP-62 NSCLC): < 0.01 µM
- TGI (HOP-62 NSCLC): > 100 µM
- GI50 (HOP-92 NSCLC): < 0.0182 µM
- TGI (HOP-92 NSCLC): 16.1 µM
- GI50 (HS 578T breast): < 0.01 µM
- TGI (HS 578T breast): > 100 µM
- GI50 (HT29 colon): < 0.01 µM
- TGI (HT29 colon): > 39.4 µM
- GI50 (IGROV1 ovarian): < 0.01 µM
- TGI (IGROV1 ovarian): > 100 µM
- GI50 (K-562 leukemia): < 0.01 µM
- TGI (K-562 leukemia): 24.1 µM
- GI50 (KM12 colon): < 0.01 µM
- TGI (KM12 colon): > 38.6 µM
- GI50 (LOX IMVI melanoma): < 0.01 µM
- TGI (LOX IMVI melanoma): > 42.4 µM
- GI50 (M14 melanoma): < 0.01 µM
- GI50 (MALME-3M melanoma): 0.0476 µM
- TGI (MALME-3M melanoma): > 47.4 µM
- GI50 (MCF7 breast): < 0.01 µM
- TGI (MCF7 breast): > 100 µM
- GI50 (MDA-MB-231 breast): < 0.01 µM
- TGI (MDA-MB-231 breast): 25.5 µM
- GI50 (MOLT-4 leukemia): < 0.01 µM
- TGI (MOLT-4 leukemia): 24.4 µM
- GI50 (NCI-H226 lung): < 0.01 µM
- TGI (NCI-H226 lung): 10.6 µM
- GI50 (NCI-H23 lung): < 0.01 µM
- TGI (NCI-H23 lung): > 100 µM
- GI50 (NCI-H460 lung): < 0.01 µM
- TGI (NCI-H460 lung): 11.7 µM
- GI50 (NCI-H522 lung): < 0.01 µM
- TGI (NCI-H522 lung): 7.25 µM
- GI50 (NCI/ADR-RES ovarian): 0.0268 µM
- TGI (NCI/ADR-RES ovarian): > 100 µM
- GI50 (OVCAR-3 ovarian): < 0.01 µM
- TGI (OVCAR-3 ovarian): < 0.0238 µM
- TGI (OVCAR-4 ovarian): > 71.5 µM
- GI50 (OVCAR-5 ovarian): < 0.01 µM
- TGI (OVCAR-5 ovarian): > 100 µM
- GI50 (OVCAR-8 ovarian): < 0.01 µM
- TGI (OVCAR-8 ovarian): > 100 µM
- GI50 (PC-3 prostate): < 0.01 µM
- TGI (PC-3 prostate): > 100 µM
- GI50 (RPMI-8226 leukemia): < 0.01 µM
- TGI (RPMI-8226 leukemia): 8.22 µM
- GI50 (SF-268 CNS): < 0.01 µM
- TGI (SF-268 CNS): > 54.1 µM
- GI50 (SF-295 CNS): < 0.01 µM
- TGI (SF-295 CNS): 6.77 µM
- GI50 (SF-539 CNS): < 0.01 µM
- TGI (SF-539 CNS): 0.173 µM
- GI50 (SK-MEL-2 melanoma): 0.463 µM
- TGI (SK-MEL-2 melanoma): 90.1 µM
- GI50 (SK-MEL-28 melanoma): 10.1 µM
- TGI (SK-MEL-28 melanoma): > 68.1 µM
- GI50 (SK-MEL-5 melanoma): < 0.01 µM
- TGI (SK-MEL-5 melanoma): 0.018 µM
- GI50 (SN12C renal): < 0.01 µM
- TGI (SN12C renal): > 100 µM
- GI50 (SNB-19 CNS): < 0.01 µM
- TGI (SNB-19 CNS): > 100 µM
- GI50 (SNB-75 CNS): < 0.01 µM
- TGI (SNB-75 CNS): > 100 µM
- GI50 (SR leukemia): < 0.01 µM
- TGI (SR leukemia): > 56.3 µM
- GI50 (SW-620 colon): < 0.01 µM
- TGI (SW-620 colon): 21.5 µM
- GI50 (TK-10 renal): 3.61 µM
- TGI (TK-10 renal): > 70.5 µM
- GI50 (U251 CNS): < 0.01 µM
- TGI (U251 CNS): > 34.1 µM
- GI50 (UACC-257 melanoma): 12.1 µM
- TGI (UACC-257 melanoma): > 56.3 µM
- GI50 (UACC-62 melanoma): < 0.01 µM
- TGI (UACC-62 melanoma): > 61.2 µM
- TGI (UO-31 renal): 42 µM

Structure (SMILES): CC1(C)OCC(COC(=O)NCn2cc(-c3ccccc3)nn2)O1 (stereo not drawn)
- TGI (786-0 renal): > 100 µM
- TGI (A549 NSCLC): > 100 µM
- TGI (ACHN renal): > 100 µM
- TGI (BT-549 breast): > 100 µM
- TGI (CAKI-1 renal): > 100 µM
- TGI (CCRF-CEM leukemia): > 100 µM
- TGI (COLO 205 colon): > 100 µM
- TGI (DU-145 prostate): > 100 µM
- TGI (EKVX NSCLC): > 100 µM
- TGI (HCC-2998 colon): > 100 µM
- TGI (HCT-116 colon): > 100 µM
- TGI (HCT-15 colon): > 100 µM
- TGI (HL-60(TB) leukemia): > 100 µM
- TGI (HOP-62 NSCLC): > 100 µM
- TGI (HOP-92 NSCLC): > 100 µM
- TGI (HT29 colon): > 100 µM
- TGI (IGROV1 ovarian): > 100 µM
- TGI (K-562 leukemia): > 100 µM
- TGI (KM12 colon): > 100 µM
- TGI (LOX IMVI melanoma): > 100 µM
- TGI (M14 melanoma): > 100 µM
- TGI (MALME-3M melanoma): > 100 µM
- TGI (MCF7 breast): > 100 µM
- TGI (MDA-MB-231 breast): > 100 µM
- TGI (MOLT-4 leukemia): > 100 µM
- TGI (NCI-H226 lung): > 100 µM
- TGI (NCI-H23 lung): > 100 µM
- TGI (NCI-H460 lung): > 100 µM
- TGI (NCI-H522 lung): > 100 µM
- TGI (NCI/ADR-RES ovarian): > 100 µM
- TGI (OVCAR-4 ovarian): > 100 µM
- TGI (OVCAR-5 ovarian): > 100 µM
- TGI (OVCAR-8 ovarian): > 100 µM
- TGI (PC-3 prostate): > 100 µM
- TGI (RPMI-8226 leukemia): > 100 µM
- TGI (SF-268 CNS): > 100 µM
- TGI (SF-295 CNS): > 100 µM
- TGI (SF-539 CNS): > 100 µM
- TGI (SK-MEL-2 melanoma): > 100 µM
- TGI (SK-MEL-28 melanoma): > 100 µM
- TGI (SK-MEL-5 melanoma): > 100 µM
- TGI (SN12C renal): > 100 µM
- TGI (SNB-19 CNS): > 100 µM
- TGI (SNB-75 CNS): > 100 µM
- TGI (SR leukemia): > 100 µM
- TGI (SW-620 colon): > 100 µM
- TGI (TK-10 renal): > 100 µM
- TGI (U251 CNS): > 100 µM
- TGI (UACC-257 melanoma): > 100 µM
